One block for each compound: values may come before it.
Key:
[1] = system: NCI-H358 cells (K-Ras G12C); assay: CellTiter-Glo cell viability, NCI-H358; assay type: cell-based, human; settings: Homo sapiens, NCI-H358, 120 h, K-Ras G12C, 5-day treatment; read-out: H358 Cell Viability IC50
Method in brief: (§1)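 Viability read by luminescence on day 5 after direct compound addition to cells, following ~30 min room-temperature equilibration. Values expressed as percent of mean DMSO signal, curves fitted with a four-parameter logistic model.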

[2] = target: KRAS G12C (Homo sapiens (Human), UniProt P01116+P62937, G12C); assay: Ras-Raf disruption/FRET/MOA assay (BRAF RBD, Cyclophilin A); assay type: biochemical; settings: read-out: KRAS G12C FRET IC50
KRAS G12C, sequence (P01116-2 other isoform, or with tags, fused parts or gaps G12C): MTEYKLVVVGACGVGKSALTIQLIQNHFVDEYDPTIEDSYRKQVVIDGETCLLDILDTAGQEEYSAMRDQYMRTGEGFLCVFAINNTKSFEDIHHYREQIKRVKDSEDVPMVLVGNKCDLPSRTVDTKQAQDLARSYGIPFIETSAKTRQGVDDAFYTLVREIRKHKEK
KRAS G12C, sequence (P62937 whole entry): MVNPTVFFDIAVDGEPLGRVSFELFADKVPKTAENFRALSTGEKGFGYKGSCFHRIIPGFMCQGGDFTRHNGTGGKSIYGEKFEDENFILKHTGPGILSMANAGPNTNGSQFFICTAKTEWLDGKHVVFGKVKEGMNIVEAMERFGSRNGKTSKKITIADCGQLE
Method in brief: (§2)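 25 μM tagless Cyclophilin A, 12.5 nM His6-Ras-GMPPNP and 50 nM GST-BRAF RBD in HEPES pH 7.3 buffer with 5 mM MgCl2, with compound (10-point 3-fold series from 30 μM final) for 3 h at 25 °C. Anti-His Eu and anti-GST APC then added for 1.5 h. IC50 from TR-FRET ratio decrease versus DMSO.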

[3] = target: KRAS G12D (Homo sapiens (Human), UniProt P01116+P62937, G12D); assay: as above; assay type: biochemical; settings: read-out: KRAS G12D FRET IC50
KRAS G12D, sequence (P01116 other isoform, or with tags, fused parts or gaps G12D): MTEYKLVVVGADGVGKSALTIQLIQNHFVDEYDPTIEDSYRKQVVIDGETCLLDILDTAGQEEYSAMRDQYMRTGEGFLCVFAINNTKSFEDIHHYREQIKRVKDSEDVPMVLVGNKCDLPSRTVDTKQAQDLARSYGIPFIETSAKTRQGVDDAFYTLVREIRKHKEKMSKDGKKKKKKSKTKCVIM
KRAS G12D, sequence (P62937 whole entry): as the sequence (P62937 whole entry) above
Method in brief: as §2

[4] = target: KRAS G12S (Homo sapiens (Human), UniProt P01116+P62937, G12S); assay: as above; assay type: biochemical; settings: read-out: KRAS G12S FRET IC50
KRAS G12S, sequence (P01116 other isoform, or with tags, fused parts or gaps G12S): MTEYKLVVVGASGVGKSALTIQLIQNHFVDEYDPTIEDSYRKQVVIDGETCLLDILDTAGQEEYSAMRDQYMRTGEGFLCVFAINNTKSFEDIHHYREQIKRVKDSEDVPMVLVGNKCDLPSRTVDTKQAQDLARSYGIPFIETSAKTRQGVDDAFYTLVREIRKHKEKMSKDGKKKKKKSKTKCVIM
KRAS G12S, sequence (P62937 whole entry): as the sequence (P62937 whole entry) above
Method in brief: as §2

[5] = target: KRAS G12V (Homo sapiens (Human), UniProt P01116+P62937, G12V); assay: as above; assay type: biochemical; settings: read-out: KRAS G12V FRET IC50
KRAS G12V, sequence (P01116 other isoform, or with tags, fused parts or gaps G12V): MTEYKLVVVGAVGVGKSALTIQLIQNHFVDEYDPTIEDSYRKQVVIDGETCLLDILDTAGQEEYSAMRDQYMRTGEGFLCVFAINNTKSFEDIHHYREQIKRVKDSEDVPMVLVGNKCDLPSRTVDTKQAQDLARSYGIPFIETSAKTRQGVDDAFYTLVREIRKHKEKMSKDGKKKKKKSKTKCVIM
KRAS G12V, sequence (P62937 whole entry): as the sequence (P62937 whole entry) above
Method in brief: as §2

[6] = target: KRAS G13C (Homo sapiens (Human), UniProt P01116+P62937, G13C); assay: as above; assay type: biochemical; settings: read-out: KRAS G13C FRET IC50
KRAS G13C, sequence (P01116 other isoform, or with tags, fused parts or gaps G13C): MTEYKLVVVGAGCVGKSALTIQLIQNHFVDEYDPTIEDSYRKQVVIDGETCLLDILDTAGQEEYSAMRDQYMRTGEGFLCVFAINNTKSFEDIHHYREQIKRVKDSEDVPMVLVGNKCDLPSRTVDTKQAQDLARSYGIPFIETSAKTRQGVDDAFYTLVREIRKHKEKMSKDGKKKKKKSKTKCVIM
KRAS G13C, sequence (P62937 whole entry): as the sequence (P62937 whole entry) above
Method in brief: as §2

[7] = target: KRAS G13D (Homo sapiens (Human), UniProt P01116+P62937, G13D); assay: as above; assay type: biochemical; settings: read-out: KRAS G13D FRET data IC50
KRAS G13D, sequence (P01116 other isoform, or with tags, fused parts or gaps G13D): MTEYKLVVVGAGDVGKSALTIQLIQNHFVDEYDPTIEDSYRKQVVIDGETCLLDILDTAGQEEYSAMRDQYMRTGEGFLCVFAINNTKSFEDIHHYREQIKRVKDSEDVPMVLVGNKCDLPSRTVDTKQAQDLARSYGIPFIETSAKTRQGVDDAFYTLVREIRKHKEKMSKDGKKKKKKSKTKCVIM
KRAS G13D, sequence (P62937 whole entry): as the sequence (P62937 whole entry) above
Method in brief: as §2

[8] = target: KRAS WT (Homo sapiens (Human), UniProt P01116+P62937); assay: as above; assay type: biochemical; settings: read-out: KRAS WT FRET data IC50
KRAS WT, sequence (P01116 other isoform, or with tags, fused parts or gaps): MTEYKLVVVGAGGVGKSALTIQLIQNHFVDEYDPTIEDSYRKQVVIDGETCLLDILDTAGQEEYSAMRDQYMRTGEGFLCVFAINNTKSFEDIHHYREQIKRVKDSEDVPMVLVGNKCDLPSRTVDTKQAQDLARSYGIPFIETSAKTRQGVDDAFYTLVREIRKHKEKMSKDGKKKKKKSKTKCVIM
KRAS WT, sequence (P62937 whole entry): as the sequence (P62937 whole entry) above
Method in brief: as §2

[9] = target: NRAS G12C (Homo sapiens (Human), UniProt P01111+P62937, G12C); assay: as above; assay type: biochemical; settings: read-out: NRAS G12C FRET data IC50
NRAS G12C, sequence (P01111 whole entry G12C): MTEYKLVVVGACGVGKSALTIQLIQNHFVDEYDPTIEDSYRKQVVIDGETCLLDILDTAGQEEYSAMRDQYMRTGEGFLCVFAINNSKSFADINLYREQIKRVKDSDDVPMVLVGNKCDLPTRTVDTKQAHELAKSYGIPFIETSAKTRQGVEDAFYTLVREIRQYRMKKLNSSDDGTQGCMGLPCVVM
NRAS G12C, sequence (P62937 whole entry): as the sequence (P62937 whole entry) above
Method in brief: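 TR-FRET read after 1.5 h with 10 nM anti-His Eu-W1024 and 50 nM anti-GST APC, following 3 h at 25 °C of GMPPNP-loaded His6-Ras (12.5 nM), GST-BRAF RBD (50 nM) and Cyclophilin A (25 μM) with compound from 30 μM final, 10 points, 3-fold. IC50 reported; pH 7.3 HEPES, 100 mM NaCl.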

[10] = system: K-Ras G12C (NCI-H358 cells); assay: Potency assay: pERK in NCI-H358 cells; assay type: cell-based, human; settings: Homo sapiens; NCI-H358 cells, 4 hours; read-out: pERK EC50 (H358 KRAS G12C)
Method in brief: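 Cells plated the day before were exposed for 4 h at 37° C, 5% CO2 to a 10-point, 3-fold DMSO dilution series (10 mM top stock), in duplicate. Phospho-ERK was read by AlphaLISA SureFire Ultra or by In-Cell Western with DRAQ5 DNA stain, and IC50 came from a 4-parameter sigmoidal fit.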

[11] = system: NCI-H358 (K-Ras G12C); assay: CellTiter-Glo cell viability assay, NCI-H358; assay type: cell-based, human; settings: Homo sapiens, NCI-H358, 120 h, 5-day treatment; read-out: H358 Cell Viability assay data (K-Ras G12C, IC50)
Method in brief: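 Viability read-out was luminescent (CellTiter-Glo) on day 5 of compound exposure in K-Ras G12C NCI-H358 cells. Values were expressed as percent of mean DMSO signal and fitted with a four-parameter logistic curve.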

[12] = system: Capan-1 cells (K-Ras G12V); assay: CellTiter-Glo cell viability, Capan-1; assay type: cell-based, human; settings: Homo sapiens, CAPAN-1, 120 h, K-Ras G12V, 5-day treatment; read-out: Capan-1 Cell Viability IC50
Method in brief: as §1

SMILES: CCn1c(-c2cnccc2COC)c2c3cc(ccc31)-c1cc(O)cc(c1)C[C@H](NC(=O)[C@H](C(C)C)N(C)C(=O)[C@H]1CCN(C(=O)CO)C1)C(=O)N1CCC[C@H](N1)C(=O)OCC(C)(C)C2 [Compound A20]
IC50 [1]: 1000 to 10000 nM | IC50 [2]: 10 to 100 nM | IC50 [3]: 1000 to 10000 nM | IC50 [4]: 100 to 1000 nM | IC50 [5]: 100 to 1000 nM | IC50 [6]: 100 to 1000 nM | IC50 [7]: 100 to 1000 nM | IC50 [8]: 100 to 1000 nM | IC50 [9]: 100 to 1000 nM | EC50 [10]: < 5000 nM | IC50 [11]: 10 to 100 nM

SMILES: CCn1c(-c2cnccc2COC)c2c3cc(ccc31)-c1cc(O)cc(c1)C[C@H](NC(=O)[C@H](C(C)C)N(C)C(=O)[C@H]1CCN(C3CCOCC3)C1)C(=O)N1CCC[C@H](N1)C(=O)OCC(C)(C)C2 [Compound A45]
IC50 [1]: 1000 to 10000 nM | IC50 [2]: 100 to 1000 nM | IC50 [3]: 100 to 1000 nM | IC50 [4]: 100 to 1000 nM | IC50 [5]: > 10000 nM | IC50 [6]: 100 to 1000 nM | IC50 [7]: 10 to 100 nM | IC50 [8]: 100 to 1000 nM | IC50 [9]: 1000 to 10000 nM | EC50 [10]: < 5000 nM | IC50 [11]: 10 to 100 nM

SMILES: CCn1c(-c2cnccc2COC)c2c3cc(ccc31)-c1cc(O)cc(c1)C[C@H](NC(=O)[C@H](C(C)C)N(C)C(=O)c1ncc[nH]1)C(=O)N1CCC[C@H](N1)C(=O)OCC(C)(C)C2 [Compound A64]
IC50 [1]: 100 to 1000 nM | IC50 [2]: 100 to 1000 nM | IC50 [3]: 1000 to 10000 nM | IC50 [4]: 100 to 1000 nM | IC50 [5]: 100 to 1000 nM | IC50 [6]: 1000 to 10000 nM | IC50 [7]: 100 to 1000 nM | IC50 [8]: 100 to 1000 nM | IC50 [9]: 100 to 1000 nM | EC50 [10]: < 5000 nM | IC50 [11]: 10 to 100 nM

SMILES: CCn1c(-c2cccnc2[C@H](C)OC)c2c3cc(ccc31)-c1cc(O)cc(c1)C[C@H](NC(=O)[C@H](C(C)C)N(C)C(=O)C1(C(F)F)CCCO1)C(=O)N1CCC[C@H](N1)C(=O)OCC(C)(C)C2 (stereo partly drawn) [Compound A416]
IC50 [1]: 100 to 1000 nM | IC50 [12]: 100 to 1000 nM | IC50 [2]: 100 to 1000 nM | IC50 [3]: 100 to 1000 nM | IC50 [4]: 100 to 1000 nM | IC50 [5]: 100 to 1000 nM | IC50 [6]: 100 to 1000 nM | IC50 [7]: 100 to 1000 nM | IC50 [8]: 100 to 1000 nM | IC50 [9]: 100 to 1000 nM | EC50 [10]: < 5000 nM

SMILES: CCn1c(-c2cccnc2[C@H](C)OC)c2c3cc(ccc31)-c1cc(O)cc(c1)C[C@H](NC(=O)[C@H](C(C)C)N(C)C(=O)[C@H]1[C@@H](N)[C@@H]3CC[C@H]1O3)C(=O)N1CCC[C@H](N1)C(=O)OCC(C)(C)C2 [Compound A421]
IC50 [1]: 100 to 1000 nM | IC50 [12]: 1000 to 10000 nM | IC50 [2]: 100 to 1000 nM | IC50 [3]: 100 to 1000 nM | IC50 [4]: 100 to 1000 nM | IC50 [5]: 1000 to 10000 nM | IC50 [6]: 10 to 100 nM | IC50 [7]: 100 to 1000 nM | IC50 [8]: 100 to 1000 nM | IC50 [9]: 100 to 1000 nM | EC50 [10]: < 5000 nM

Second part, led by results:

IC50 [1]: > 10000 nM | IC50 [2]: 100 to 1000 nM | IC50 [3]: 100 to 1000 nM | IC50 [4]: 100 to 1000 nM | IC50 [5]: 1000 to 10000 nM | IC50 [6]: 10 to 100 nM | IC50 [7]: 100 to 1000 nM | IC50 [8]: 100 to 1000 nM | IC50 [9]: 100 to 1000 nM | EC50 [10]: < 5000 nM | IC50 [11]: 10 to 100 nM
SMILES: CCn1c(-c2cnccc2COC)c2c3cc(ccc31)-c1cc(O)cc(c1)C[C@H](NC(=O)[C@H](C(C)C)N(C)C(=O)[C@H]1CCN(C[C@@H](C)O)C1)C(=O)N1CCC[C@H](N1)C(=O)OCC(C)(C)C2 [Compound A31]

IC50 [1]: > 10000 nM | IC50 [2]: 100 to 1000 nM | IC50 [3]: 1000 to 10000 nM | IC50 [4]: 100 to 1000 nM | IC50 [5]: > 10000 nM | IC50 [6]: 100 to 1000 nM | IC50 [7]: 100 to 1000 nM | IC50 [8]: 100 to 1000 nM | IC50 [9]: 100 to 1000 nM | EC50 [10]: < 5000 nM | IC50 [11]: 10 to 100 nM
SMILES: CCn1c(-c2cnccc2COC)c2c3cc(ccc31)-c1cc(O)cc(c1)C[C@H](NC(=O)[C@H](C(C)C)N(C)C(=O)[C@H]1CCN(C[C@H](C)O)C1)C(=O)N1CCC[C@H](N1)C(=O)OCC(C)(C)C2 [Compound A47]

IC50 [1]: 1000 to 10000 nM | IC50 [2]: 1000 to 10000 nM | IC50 [3]: > 10000 nM | IC50 [4]: 1000 to 10000 nM | IC50 [5]: 1000 to 10000 nM | IC50 [6]: 1000 to 10000 nM | IC50 [7]: 1000 to 10000 nM | IC50 [8]: 1000 to 10000 nM | IC50 [9]: 1000 to 10000 nM | EC50 [10]: < 5000 nM | IC50 [11]: 10 to 100 nM
SMILES: CCn1c(-c2cnccc2COC)c2c3cc(ccc31)-c1cc(O)cc(c1)C[C@H](NC(=O)[C@@H](NC(C)=O)C(C)C)C(=O)N1CCC[C@H](N1)C(=O)OCC(C)(C)C2 [Compound A58]

IC50 [1]: > 10000 nM | IC50 [2]: 10 to 100 nM | IC50 [3]: 100 to 1000 nM | IC50 [4]: 10 to 100 nM | IC50 [5]: 100 to 1000 nM | IC50 [6]: 10 to 100 nM | IC50 [7]: 100 to 1000 nM | IC50 [8]: 100 to 1000 nM | IC50 [9]: 100 to 1000 nM | IC50 [11]: 100 to 1000 nM
SMILES: CCn1c(-c2cnccc2COC)c2c3cc(ccc31)-c1cc(O)cc(c1)C[C@H](NC(=O)[C@H](C(C)C)N(C)C(=O)CNC(=N)N)C(=O)N1CCC[C@H](N1)C(=O)OCC(C)(C)C2 [Compound A68]

IC50 [1]: 1000 to 10000 nM | IC50 [2]: 1000 to 10000 nM | IC50 [3]: 1000 to 10000 nM | IC50 [4]: 1000 to 10000 nM | IC50 [5]: 1000 to 10000 nM | IC50 [6]: 100 to 1000 nM | IC50 [7]: 1000 to 10000 nM | IC50 [8]: 1000 to 10000 nM | IC50 [9]: 1000 to 10000 nM | IC50 [11]: 100 to 1000 nM
SMILES: CCn1c(-c2cnccc2COC)c2c3cc(ccc31)-c1cc(O)cc(c1)C[C@H](NC(=O)[C@H](C(C)C)N(C)C(=O)[C@@H](C)O)C(=O)N1CCC[C@H](N1)C(=O)OCC(C)(C)C2 [Compound A92]
IC50 [12]: > 10000 nM

IC50 [1]: 100 to 1000 nM | IC50 [2]: 10 to 100 nM | IC50 [3]: 100 to 1000 nM | IC50 [4]: 10 to 100 nM | IC50 [5]: 100 to 1000 nM | IC50 [6]: 10 to 100 nM | IC50 [7]: 100 to 1000 nM | IC50 [8]: 10 to 100 nM | IC50 [9]: 10 to 100 nM | EC50 [10]: < 5000 nM
SMILES: CCn1c(-c2cccnc2[C@H](C)OC)c2c3cc(ccc31)-c1cc(O)cc(c1)C[C@H](NC(=O)[C@H](C(C)C)N(C)C(=O)[C@@H]1COC[C@@H]1N)C(=O)N1CCC[C@H](N1)C(=O)OCC(C)(C)C2 [Compound A418]
IC50 [12]: 1000 to 10000 nM

Source: US20250195521A1 (Revolution Medicines, Inc., priority 2020, published 2025)
